{
  "source": "patent US9624244B2",
  "about": "“Benzo [B] isoxazoloazepine bromodomain inhibitors and uses thereof” (Constellation Pharmaceuticals, Inc., priority 2012, dated 2017)",
  "key": {"[1]": {"test_system": "IL-6 secretion, THP-1 cells", "experiment": "Cell-based IL-6 quantification assay (ELISA, Mesoscale) in LPS-stimulated THP-1 cells", "settings": "Homo sapiens, LPS 4 μg/mL, 16 h, ELISA value/CellTiter-Glo ratio", "procedure": "Cell-Based IL-6 Quantification Assay (ELISA, Mesoscale Assay):\n100,000 THP-1 cells were seeded in RPMI1640-10% FBS in 96-well plates. LPS (E. Coli Invitrogen) in RPMI-10% FBS at a final concentration of 4 μg/mL was added to the wells and the cells are then incubated in the presence of various concentrations of compounds for 16 h. Plates are spun ([…], 5 min), an aliquot of 25 uL supernatant is transferred in to an ELISA plate (Mesoscale technology, MSD) and the detection of IL-6 is performed using manufacturer's instructions. The amount of cells in each well is assessed using CellTiter-Glo® (Promega). The ratio of ELISA value/CellTiter-Glo value is used to calculate the percent of inhibition of IL-6 secretion."}, "[2]": {"test_system": "MYC mRNA, MV4:11 (AML) or Raji (Burkitt's lymphoma) cells", "experiment": "cMyc RNA quantification assay (QuantiGene)", "type": "cell-based", "settings": "MV4:11 or Raji cells, 4 h, MYC mRNA normalized to DMSO", "procedure": "cMyc RNA Quantification Assay (QuantiGene® Assay):\nMV4:11 (AML) or Raji (Burkitt's lymphoma) cells were seeded in a 96-well plate and incubated in the presence of various concentrations of compounds for 4 h. Relative mRNA levels were quantitated by using QuantiGene 2.0 assay (Affymetrix) according to the manufacturer's recommendation. Signals were detected by using an Envision plate reader (Perkin-Elmer). Biological duplicates were averaged and normalized to vehicle (DMSO) control to calculate percent MYC mRNA levels."}, "BRD4(BD1)": {"target": "T1, BRD4(BD1) (Homo sapiens, UniProt O60885)", "T1 construct": "His; made in house", "experiment": "BRD4 AlphaLisa binding assay", "settings": "BRD4(BD1) 30 nM, biotinylated H4-tetraacetyl peptide 200 nM, read-out: AS IC50", "procedure": "IC50 Measurements for Inhibitors Using BRD4 AlphaLisa Binding Assay\nSpecifically, in a 384 well ProxiPlate BRD4(BD1) (30 nM final) was combined with peptide (200 nM final) in 40 mM HEPES (pH 7.0), 40 mM NaCl, 1 mM DTT, 0.01% (w/v) BSA, and 0.008% (w/v) Brij-35 either in the presence of DMSO (final 1.2% DMSO) or compound dilution series in DMSO. After 20 minute incubation at room temperature Alpha streptavidin donor beads and AlphaLisa anti-Flag acceptor beads were added to a final concentration of 10 ug/mL each. After three hours equilibration plates were read on an Envision instrument and IC50s calculated using a four parameter non-linear curve fit."}},
  "data": [
    {"smiles": "CCC1CN(c2ccc(C#N)cc2)c2cc(-c3cnn(C)c3)ccc2-c2c(C)noc21", "note": "(stereo not drawn) [Compound 121]", "values": [
      {"measurement": "IC50", "setting": "[1]", "result": 150, "unit": "nM"},
      {"measurement": "EC50", "setting": "[2]", "result": 460, "unit": "nM"},
      {"measurement": "IC50", "setting": "BRD4(BD1)", "result": 80, "unit": "nM"}
    ]},
    {"smiles": "Cc1noc2c1-c1ccc(-c3cnn(C)c3)c(C)c1N(c1ccc(C#N)cc1)CC2C", "note": "(stereo not drawn) [Compound 118]", "values": [
      {"measurement": "IC50", "setting": "[1]", "result": 520, "unit": "nM"},
      {"measurement": "EC50", "setting": "[2]", "result": 830, "unit": "nM"},
      {"measurement": "IC50", "setting": "BRD4(BD1)", "result": 160, "unit": "nM"}
    ]},
    {"smiles": "Cc1noc2c1-c1ccc(-c3cnn(C)c3)cc1N(c1ccc(C#N)cc1)C(=O)C2", "note": "[Compound 135, 4-(1-methyl-8-(1-methyl-1H-pyrazol-4-yl)-5-oxo-4H-benzo[b]isoxazolo[4,5-d]azepin-6(5H)-yl)benzonitrile]", "values": [
      {"measurement": "IC50", "setting": "[1]", "result": 650, "unit": "nM"},
      {"measurement": "EC50", "setting": "[2]", "result": 1320, "unit": "nM"},
      {"measurement": "IC50", "setting": "BRD4(BD1)", "result": 490, "unit": "nM"}
    ]},
    {"smiles": "Cc1noc2c1-c1ccc(-c3cncnc3)cc1N(c1ccc(C#N)cc1)CC2", "note": "[Compound 109]", "values": [
      {"measurement": "IC50", "setting": "[1]", "result": "> 1000", "unit": "nM"},
      {"measurement": "EC50", "setting": "[2]", "result": 2040, "unit": "nM"},
      {"measurement": "IC50", "setting": "BRD4(BD1)", "result": 350, "unit": "nM"}
    ]},
    {"smiles": "CCC1CN(c2ccc(C#N)cc2)c2cc(-c3ccc(=O)n(C)c3)ccc2-c2c(C)noc21", "note": "(stereo not drawn) [Compound 122]", "values": [
      {"measurement": "IC50", "setting": "[1]", "result": 120, "unit": "nM"},
      {"measurement": "EC50", "setting": "[2]", "result": 240, "unit": "nM"},
      {"measurement": "IC50", "setting": "BRD4(BD1)", "result": 40, "unit": "nM"}
    ]},
    {"smiles": "Cc1noc2c1-c1ccc(-c3cnn(C)c3)cc1N(c1ccc(C(N)=O)cc1)CC2", "note": "[Compound 119]", "values": [
      {"measurement": "IC50", "setting": "[1]", "result": 610, "unit": "nM"},
      {"measurement": "EC50", "setting": "[2]", "result": 460, "unit": "nM"},
      {"measurement": "IC50", "setting": "BRD4(BD1)", "result": 150, "unit": "nM"}
    ]},
    {"smiles": "Cc1noc(C)c1-c1ccc2c(c1)-c1c(C)noc1CCN2c1ccc(C#N)cc1", "note": "[Compound 113]", "values": [
      {"measurement": "IC50", "setting": "[1]", "result": 7400, "unit": "nM"},
      {"measurement": "EC50", "setting": "[2]", "result": "> 4000", "unit": "nM"},
      {"measurement": "IC50", "setting": "BRD4(BD1)", "result": 8900, "unit": "nM"}
    ]},
    {"smiles": "Cc1noc2c1-c1ccc(-c3cnn(C)c3)cc1N(c1ccc(S(C)(=O)=O)cc1)CC2", "note": "[Compound 120]", "values": [
      {"measurement": "IC50", "setting": "[1]", "result": "> 1000", "unit": "nM"},
      {"measurement": "EC50", "setting": "[2]", "result": 1460, "unit": "nM"},
      {"measurement": "IC50", "setting": "BRD4(BD1)", "result": 240, "unit": "nM"}
    ]},
    {"smiles": "Cc1noc2c1-c1ccc(-c3ccc(C(=O)O)cc3)cc1N(c1ccc(C#N)cc1)CC2", "note": "[Compound 115]", "values": [
      {"measurement": "IC50", "setting": "[1]", "result": 530, "unit": "nM"},
      {"measurement": "EC50", "setting": "[2]", "result": 2120, "unit": "nM"},
      {"measurement": "IC50", "setting": "BRD4(BD1)", "result": 30, "unit": "nM"}
    ]}
  ]
}
